Laboratory results: the supplement of paper PMC4862054

tested on: MFM-223; test: normalised response (% of control), CellTiter-Glo; higher = more viable cells (100 = DMSO, 0 = benzethonium chloride kill control); conditions: incubation time: 72 h
How it was run: (§1)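 Breast cancer cell lines (20 µl suspension) were seeded into 384-well plates holding compound at 5 concentrations in 10-fold steps over a compound-specific 10,000-fold range, then incubated 72 h. CellTox Green fluorescence (485/520 nm) was read first, then CellTiter-Glo luminescence after 10 min at room temperature. Each plate was normalised to 0.1 % DMSO (100) and a positive kill control (0). Each value is the normalised signal at a single concentration of the series.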

Compound	normalised response
CNC(=O)c1ccc(N2C(=S)N(c3ccc(C#N)c(C(F)(F)F)c3)C(=O)C2(C)C)cc1F [Enzalutamide] (1 nM)	99.6%
CNC(=O)c1ccc(N2C(=S)N(c3ccc(C#N)c(C(F)(F)F)c3)C(=O)C2(C)C)cc1F [Enzalutamide] (10 nM)	98.6%
C=C1C[C@@H]2[C@H](CC[C@]3(C)C(=O)CC[C@@H]23)[C@@]2(C)C=CC(=O)C=C12 [Exemestane] (10 nM)	108%
Cc1cc(Nc2cc(CN3CCOCC3)c3nc(C)c(Cc4ccc(Cl)cc4F)n3n2)n[nH]1 [Gandotinib] (10 nM)	105%
O=C(Nc1ccncc1)C(=O)c1cn(Cc2ccc(Cl)cc2)c2ccccc12 [Indibulin] (10 nM)	107%
Cc1ccc(NC(=O)c2ccc(CN3CCN(C)CC3)cc2)cc1Nc1nc(-c2cccnc2)cs1 [Masitinib] (10 nM)	105%
Cc1[nH]c2ccccc2c1CCNCc1ccc(/C=C/C(=O)NO)cc1 [Panobinostat] (1 nM)	100%
COCC1(CO)C(=O)C2CCN1CC2 (stereo not given) [Prima-1 Met] (10 nM)	103%

tested on: DU-4475; test: as above; conditions: incubation time: 72 h
How it was run: as §1

Compound	normalised response
CCn1c(-c2nonc2N)nc2cnc(Oc3cccc(NC(=O)c4ccc(OCCN5CCOCC5)cc4)c3)cc21 (1 nM)	94.3%
CCn1c(-c2nonc2N)nc2cnc(Oc3cccc(NC(=O)c4ccc(OCCN5CCOCC5)cc4)c3)cc21 (10 nM)	94.2%
N#Cc1ccc(COC[C@H]2O[C@@H](n3c(NCc4ccc(Cl)c(Cl)c4)nc4c(N)ncnc43)[C@H](O)[C@@H]2O)cc1 (10 nM)	106%
COc1cc(O)c2c(c1)/C=C/C[C@H](O)[C@H](O)C(=O)/C=C\C[C@H](C)OC2=O [(5Z)-7-Oxozeaenol] (1 nM)	96.6%
COc1cc(O)c2c(c1)/C=C/C[C@H](O)[C@H](O)C(=O)/C=C\C[C@H](C)OC2=O [(5Z)-7-Oxozeaenol] (10 nM)	102%
COc1cc(OC2CCN(C)CC2)ccc1Nc1ncc2c(n1)n(C1CCCC1)c(=O)n2C [AZ 3146] (10 nM)	97%
CNC(=O)c1cccc(-c2ccc3c(N4CCOC[C@@H]4C)nc(N4CCOC[C@@H]4C)nc3n2)c1 [AZD2014] (1 nM)	99.4%
CNC(=O)c1cccc(-c2ccc3c(N4CCOC[C@@H]4C)nc(N4CCOC[C@@H]4C)nc3n2)c1 [AZD2014] (10 nM)	104%
CN(C)c1nc(N(C)C)nc(N(C)C)n1 [Altretamine] (10 nM)	100%
O=C(/C=C/c1cccc(S(=O)(=O)Nc2ccccc2)c1)NO [Belinostat] (10 nM)	97.2%
Nc1cc(C(F)(F)F)c(-c2cc(N3CCOCC3)nc(N3CCOCC3)n2)cn1 [Buparlisib] (1 nM)	97.7%
Nc1cc(C(F)(F)F)c(-c2cc(N3CCOCC3)nc(N3CCOCC3)n2)cn1 [Buparlisib] (10 nM)	97.1%
O=P1(N(CCCl)CCCl)NCCCO1 (stereo not given) [Cyclophosphamide] (40 nM)	106%
CNC(=O)c1ccc(N2C(=S)N(c3ccc(C#N)c(C(F)(F)F)c3)C(=O)C2(C)C)cc1F [Enzalutamide] (1 nM)	98.9%
CNC(=O)c1ccc(N2C(=S)N(c3ccc(C#N)c(C(F)(F)F)c3)C(=O)C2(C)C)cc1F [Enzalutamide] (10 nM)	101%
C=C1C[C@@H]2[C@H](CC[C@]3(C)C(=O)CC[C@@H]23)[C@@]2(C)C=CC(=O)C=C12 [Exemestane] (10 nM)	106%
Cc1cc(Nc2cc(CN3CCOCC3)c3nc(C)c(Cc4ccc(Cl)cc4F)n3n2)n[nH]1 [Gandotinib] (10 nM)	104%
O=C(Nc1ccncc1)C(=O)c1cn(Cc2ccc(Cl)cc2)c2ccccc12 [Indibulin] (10 nM)	105%
Cc1ccc(NC(=O)c2ccc(CN3CCN(C)CC3)cc2)cc1Nc1nc(-c2cccnc2)cs1 [Masitinib] (10 nM)	102%
Cc1[nH]c2ccccc2c1CCNCc1ccc(/C=C/C(=O)NO)cc1 [Panobinostat] (1 nM)	99.1%
COCC1(CO)C(=O)C2CCN1CC2 (stereo not given) [Prima-1 Met] (10 nM)	109%

tested on: MCF-10A; test: as above; conditions: incubation time: 72 h
How it was run: as §1

Compound	normalised response
CCn1c(-c2nonc2N)nc2cnc(Oc3cccc(NC(=O)c4ccc(OCCN5CCOCC5)cc4)c3)cc21 (1 nM)	102%
CCn1c(-c2nonc2N)nc2cnc(Oc3cccc(NC(=O)c4ccc(OCCN5CCOCC5)cc4)c3)cc21 (10 nM)	89%
N#Cc1ccc(COC[C@H]2O[C@@H](n3c(NCc4ccc(Cl)c(Cl)c4)nc4c(N)ncnc43)[C@H](O)[C@@H]2O)cc1 (10 nM)	101%
COc1cc(O)c2c(c1)/C=C/C[C@H](O)[C@H](O)C(=O)/C=C\C[C@H](C)OC2=O [(5Z)-7-Oxozeaenol] (1 nM)	109%
COc1cc(O)c2c(c1)/C=C/C[C@H](O)[C@H](O)C(=O)/C=C\C[C@H](C)OC2=O [(5Z)-7-Oxozeaenol] (10 nM)	112%
COc1cc(OC2CCN(C)CC2)ccc1Nc1ncc2c(n1)n(C1CCCC1)c(=O)n2C [AZ 3146] (10 nM)	95.5%
CNC(=O)c1cccc(-c2ccc3c(N4CCOC[C@@H]4C)nc(N4CCOC[C@@H]4C)nc3n2)c1 [AZD2014] (1 nM)	114%
CNC(=O)c1cccc(-c2ccc3c(N4CCOC[C@@H]4C)nc(N4CCOC[C@@H]4C)nc3n2)c1 [AZD2014] (10 nM)	111%
CN(C)c1nc(N(C)C)nc(N(C)C)n1 [Altretamine] (10 nM)	109%
O=C(/C=C/c1cccc(S(=O)(=O)Nc2ccccc2)c1)NO [Belinostat] (10 nM)	96%
Nc1cc(C(F)(F)F)c(-c2cc(N3CCOCC3)nc(N3CCOCC3)n2)cn1 [Buparlisib] (1 nM)	98.8%
Nc1cc(C(F)(F)F)c(-c2cc(N3CCOCC3)nc(N3CCOCC3)n2)cn1 [Buparlisib] (10 nM)	98.2%
O=P1(N(CCCl)CCCl)NCCCO1 (stereo not given) [Cyclophosphamide] (40 nM)	102%
CNC(=O)c1ccc(N2C(=S)N(c3ccc(C#N)c(C(F)(F)F)c3)C(=O)C2(C)C)cc1F [Enzalutamide] (1 nM)	105%
CNC(=O)c1ccc(N2C(=S)N(c3ccc(C#N)c(C(F)(F)F)c3)C(=O)C2(C)C)cc1F [Enzalutamide] (10 nM)	106%
C=C1C[C@@H]2[C@H](CC[C@]3(C)C(=O)CC[C@@H]23)[C@@]2(C)C=CC(=O)C=C12 [Exemestane] (10 nM)	116%
Cc1cc(Nc2cc(CN3CCOCC3)c3nc(C)c(Cc4ccc(Cl)cc4F)n3n2)n[nH]1 [Gandotinib] (10 nM)	108%
O=C(Nc1ccncc1)C(=O)c1cn(Cc2ccc(Cl)cc2)c2ccccc12 [Indibulin] (10 nM)	102%
Cc1ccc(NC(=O)c2ccc(CN3CCN(C)CC3)cc2)cc1Nc1nc(-c2cccnc2)cs1 [Masitinib] (10 nM)	104%
Cc1[nH]c2ccccc2c1CCNCc1ccc(/C=C/C(=O)NO)cc1 [Panobinostat] (1 nM)	99.9%
COCC1(CO)C(=O)C2CCN1CC2 (stereo not given) [Prima-1 Met] (10 nM)	107%
